Where two headings read alike, the source gives them in different places. Where a SMILES comes first, the peptide text is derived from it.
Tests used:
[1] = 17- versus 19-allylamino derivative of herbimycin A; cited from earlier work
[2] = tested on: OVA-peptide pulsed EL4 cells; test: 51Cr release assay with effector cells from immunized mice; assay type: cell-based, C57BL/6 mice; conditions: mice immunized once or twice; OVA-primed EL-4 target cells
Description: Preparation of hsp70 and/or peptide for use in immunization. Approximately 15 μg hsp70 and 12 μg OVA-BiP were mixed, on ice, to a final volume of 10 μL in Buffer Y (to produce a final concentration of 21.5 μM hsp70, 0.5 mM OVA-BiP, 20 mM HEPES pH 7.0, 150 mM KCl, 10 MM (NH4)2SO4, 2 mM MgCl2 and 2 mM MgADP, pH 7.0). The mixture was incubated for 30 minutes at 37° C. and was used for in vivo immunizations. Similar incubations were carried out with (i) 5 μl TiterMax adjuvant (Vaxcell, Norcross, Ga.) and 12 μg OVA-BiP (ii) 5 μl TiterMax and 5 μg OVA peptide or (iii) 12 μg OVA-BiP alone.
Preparation of cells for chromium release assay. […]
Chromium release assay. […] Supernatants were harvested and radioactivitiy released by cytotoxic activity was measured in a gamma counter. The percent specific lysis was calculated as 100×[(cpm release by CTL−cpm spontaneously released)/(cpm maximal release−cpm spontaneously released)]. Maximal release was determined by adding 1% NP-40 to lyse all cells. Spontaneous release of all target in the absence of effector cells (measured in a culture of target cells (in the absence of effector cells) maintained in parallel for the duration of the assay) was less than 20% of the maximal release.

[3] = tested on: EG7 cells; test: EG7 tumor cell challenge after immunization; assay type: in vivo, C57BL/6 mice; conditions: peptide alone, without TiterMax or hsp70, eight mice per group
Description: C57BL/6 mice, 8-10 weeks old, were immunized intradermally with one of the following (eight mice in each group): (a)5 μl TiterMax and 5 μg OVA peptide; (b) 15 μg hsp70 and 5 μg OVA peptide; (c) 5 μl TiterMax and […] (OVA-BiP); (d) 15 μg hsp70 and 12 μg OVA-BiP; (e) control (four animals only in this group); (f) 5 μg OVA peptide; or (g) 12 μg OVA-BiP. The mice then were injected with 4×10^6 EG7 cells. Tumor size was evaluated over time by measuring two diameters, the greatest diameter and the diameter perpendicular to the greatest diameter, and then calculating the average diameter. The results are shown in FIGS. 8A-G (corresponding to groups a-g, as set forth above).

[4] = biological target: T1, gp96 in the presence of herbimycin A (Mus musculus, UniProt P08113); test: Affinity panning of phage display heptapeptide library on gp96 in the presence of herbimycin A; assay type: binding; conditions: TWEEN 20
T1 construct: The mouse cDNA encoding mature gp96 (i.e., wherein the endoplasmic reticulum signal peptide has been removed) was incorporated into the pET 11 a expression vector; made in house; host or cells: Escherichia coli BL21 (pET11gp96)
T1 sequence (P08113 22-802): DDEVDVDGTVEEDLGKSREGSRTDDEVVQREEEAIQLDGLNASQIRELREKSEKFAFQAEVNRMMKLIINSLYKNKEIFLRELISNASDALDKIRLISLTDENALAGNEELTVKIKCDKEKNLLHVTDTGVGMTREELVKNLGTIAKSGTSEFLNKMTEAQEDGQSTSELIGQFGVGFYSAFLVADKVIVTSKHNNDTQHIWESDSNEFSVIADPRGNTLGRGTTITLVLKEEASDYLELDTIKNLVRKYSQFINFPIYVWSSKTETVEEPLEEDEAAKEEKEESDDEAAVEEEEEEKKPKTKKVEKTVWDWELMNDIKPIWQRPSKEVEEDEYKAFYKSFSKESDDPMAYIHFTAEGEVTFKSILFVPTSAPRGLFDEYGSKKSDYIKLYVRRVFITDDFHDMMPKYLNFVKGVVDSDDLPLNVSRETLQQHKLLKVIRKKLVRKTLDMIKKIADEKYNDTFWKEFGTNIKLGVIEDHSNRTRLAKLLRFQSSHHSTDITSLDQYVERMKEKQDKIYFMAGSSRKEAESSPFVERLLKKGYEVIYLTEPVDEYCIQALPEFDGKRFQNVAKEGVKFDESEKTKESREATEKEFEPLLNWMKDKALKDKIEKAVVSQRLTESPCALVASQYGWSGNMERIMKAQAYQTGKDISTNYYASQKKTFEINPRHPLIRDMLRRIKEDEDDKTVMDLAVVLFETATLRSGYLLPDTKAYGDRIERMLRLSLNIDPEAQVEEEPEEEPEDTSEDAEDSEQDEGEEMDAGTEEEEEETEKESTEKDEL
Description: Preparation of a gp96 expression vector. The mouse cDNA encoding mature gp96 (i.e., wherein the endoplasmic reticulum signal peptide has been removed) was incorporated into the pET 11 a expression vector (Novagen) as follows. Gp96 cDNA insert was prepared by polymerase chain reaction (PCR) of a pRc/CMV clone containing the cDNA using the following oligonucleotide primers: […]
Expression of gp96. pET11gp96 was transformed into BL21 Escherichia coli cells, and plated on LB plates containing ampicillin (50 μg/ml). One of the resulting colonies was used to inoculate a 20 ml overnight culture of 2×TY medium containing ampicillin (150 μg/ml). The following day, the resulting culture was spun down and the harvested bacteria were resuspended in 1 ml of fresh medium. Two one liter cultures were then each inoculated with 0.5 ml of the harvested cells and allowed to grow at 37° C. until the optical density, measured at 600 nm, was 0.5. Then, IPTG was added to a concentration of 1 mM and the cells were cultured for another 3 hours before being harvested by centrifugation. The resulting cell pellet was resuspended in 20 ml of 50 mM HEPES pH 7.5, 50 mM KCl, 5 mM MgAcetate, 20% sucrose and 1 mM PMSF. Cell extracts were prepared by pressure shearing in a French Press. The lysates were then spun at 100,000×g for 1.5 hours and the supernatant, which constituted crude gp96 extract, was collected.
Purification of gp96. The following steps were all performed at 4° C. A 12.5 cm×3.2 cm column of DE52 resin (Whatman) was equilibrated in a solution of 50 mM MOPS pH 7.4, 10 mM NaCl, 5 mM MgAcetate (hereafter, “Buffer A”). The crude gp96 extract was diluted 2-fold and immediately loaded onto the column at a flow rate of 2 ml/min. Elution from the column was achieved using a gradient of a solution of 50 mM MOPS pH 7.4, 1M NaCl, 5 mM MgAcetate (hereafter, “Buffer B”) from 0% to 100% Buffer B over 1000 ml. The elution profile was examined by subjecting fractions collected from the column to SDS-PAGE analysis. Fractions containing gp96 were pooled and diluted 2-fold with cold water, and were immediately run onto the next column (see below).
A 10 cm×1 cm column of hydroxyapatite (BioRad) was washed with 100 ml 0.5 M K2HPO4, 50 mM KCl pH 7.4 and then equilibrated with 10 mM K2HPO4, 50 mM KCl pH 7.4. The pooled diluted fractions from the DE52 column were loaded onto this column at a flow rate of 1 ml/min. The gp96 protein was eluted in a gradient of 10-500 mM K2HPO4 over 800 ml. Fractions containing gp96 were pooled and loaded onto the phenylsepharose column described below.
A 9 cm×3 cm column of phenylsepharose (Pharmacia) was equilibrated with 500 mM NaCl, 50 mM MOPS pH 7.4. The pooled fractions containing gp96 from the hydroxyapatite were loaded onto this column at 1 ml/min and the gp96 was eluted in a gradient of 500-0 mM NaCl over 800 ml. The gp96 containing fractions collected from the column were identified by SDS-PAGE, pooled, and concentrated.
The gp96 was then loaded onto a Hi Load 26/60 Superdex-200 column (Pharmacia) equilibrated with 100 mM NaCl, 5 mM MgAcetate, 50 mM MOPS pH 7.5, 3 ml fractions were collected, and the fractions containing the most pure gp96 (as identified by SDS PAGE using a 12 percent reducing gel) and pooled. To the pooled fractions, glycerol was added to 10% (v/v), and then the fractions were concentrated to 21 mg/ml on a Centricon-50 concentrator (Amicon), frozen using liquid nitrogen, and stored at −80° C.
Affinity panning. The Ph.D. Phage Display Library Kit (New England BioLabs, Beverly, Mass.), was used for affinity panning. For each panning experiment, a well of a 96-well polystyrene microtiter plate (each well having a 6 mm diameter) was filled with 150 μl of a solution of 200 μg/ml of gp96 in 0.1 M NaHCO3 pH 8.3. If herbimycin A was to be included in the experiment, 1 μl of 10 mg/ml herbimycin A (GIBCO) in DMSO was added to each well, corresponding to a 50-fold molar excess relative to gp96. […]

[5] = biological target: T1, gp96 in the presence of herbimycin A; conditions: expected frequency for comparison with % actual, cited from earlier work
[6] = Table XII, gp96 and herbimycin A, binding buffer without calcium: 20 mM HEPES pH 7.5, 100 mM KCl, 1 mM DTT, 1 mM MgAcetate, 42 phage-expressed peptides sequenced
[7] = Table XIV, gp96 in the presence of herbimycin A, binding buffer with ATP: 20 mM HEPES pH 7.5, 100 mM KCl, 1 mM CaCl2, 1 mM MgAcetate, 1 mM ATP
[8] = Table XVI, binding buffer with AMP-PNP instead of ATP: 20 mM HEPES pH 7.5, 100 mM KCl, 1 mM CaCl2, 1 mM MgAcetate, 1 mM AMP-PNP

% actual (amino acid frequency in sequenced gp96-binding phage-expressed heptapeptides) [4, 6]	% actual (amino acid frequency in sequenced gp96-binding phage-expressed heptapeptides) [4, 7]	% actual (amino acid frequency in sequenced gp96-binding phage-expressed heptapeptides) [4, 8]	Compound	% expected (amino acid frequency) ([5]; Table XII)	% expected (amino acid frequency) ([5]; Table XIV)	% expected (amino acid frequency) ([5]; Table XVI)	further results
–	–	–	17-allylamino herbimycin	–	–	–	activity [1]: more active than 19-allylamino herbimycin
–	–	–	CC[C@H](C)[C@H](NC(=O)[C@@H](NC(=O)[C@@H](N)CO)[C@@H](C)CC)C(=O)N[C@@H](CC(N)=O)C(=O)N[C@@H](Cc1ccccc1)C(=O)N[C@@H](CCC(=O)O)C(=O)N[C@@H](CCCCN)C(=O)N[C@@H](CC(C)C)C(=O)NCC(=O)N[C@@H](CO)C(=O)NCC(=O)N[C@@H](Cc1c[nH]cn1)C(=O)N[C@@H](Cc1c[nH]c2ccccc12)C(=O)N[C@@H](CC(=O)O)C(=O)N[C@@H](Cc1ccccc1)C(=O)N[C@@H](C)C(=O)N[C@@H](Cc1c[nH]c2ccccc12)C(=O)N1CCC[C@H]1C(=O)N[C@@H](Cc1c[nH]c2ccccc12)C(=O)O [OVA-BiP] (H-SIINFEKLGSGHWDFAWPW-OH)	–	–	–	OVA-specific cytotoxic immune response [2]: significant anti-OVA immune response
–	–	–	Ser Ile Ile Asn Phe Glu Lys Leu (SIINFEKL; printed: Ser Ile Ile Asn Phe Glu Lys Leu) [OVA peptide]	–	–	–	tumor-free animals [3]: no animals were tumor-free
13.95%	8.9%	10%	C[C@@H](O)[C@H](N)C(=O)O [Thr]	9.3%	9.3%	9.3%	–
2.0%	0%	2.85%	CSCC[C@H](N)C(=O)O [Met]	3.3%	3.3%	3.3%	–

— patent US20030194409A1, “Conjugate heat shock protein-binding peptides” (priority 2002, published 2003)
